Test results as given in ChEMBL document CHEMBL3882724 (2013).

How the values were obtained:
[1] = target: T1, Steroid 17-alpha-hydroxylase/17,20 lyase (Homo sapiens, UniProt P05093); experiment: Inhibition of CYP17 in human testicular microsomes using 17alpha-hydroxypregnenolone as substrate assessed as decrease in DHEA levels after 90 mins by ELISA; design: species or system Testis
T1 sequence (P05093 whole entry): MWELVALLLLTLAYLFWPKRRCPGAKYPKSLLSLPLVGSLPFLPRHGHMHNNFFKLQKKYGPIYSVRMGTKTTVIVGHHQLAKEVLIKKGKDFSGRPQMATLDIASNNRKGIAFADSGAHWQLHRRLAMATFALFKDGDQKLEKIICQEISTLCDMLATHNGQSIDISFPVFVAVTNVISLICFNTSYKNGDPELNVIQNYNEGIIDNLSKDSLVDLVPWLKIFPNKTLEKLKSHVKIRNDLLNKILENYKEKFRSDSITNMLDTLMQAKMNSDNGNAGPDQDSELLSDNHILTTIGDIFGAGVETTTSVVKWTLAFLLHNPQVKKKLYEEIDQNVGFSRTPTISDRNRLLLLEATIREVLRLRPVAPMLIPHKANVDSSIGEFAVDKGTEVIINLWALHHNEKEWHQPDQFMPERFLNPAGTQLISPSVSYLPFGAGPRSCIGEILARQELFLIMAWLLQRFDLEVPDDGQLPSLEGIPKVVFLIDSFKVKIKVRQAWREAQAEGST

[2] = target: T1, Steroid 17-alpha-hydroxylase/17,20 lyase; experiment: Inhibition of CYP17 in human testicular microsomes using 17alpha-hydroxypregnenolone as substrate assessed as decrease in DHEA levels at 10 nM after 90 mins by ELISA relative to control; design: species or system Testis; details: 1.5 h
[3] = Half life in human liver microsomes at 1 uM by LC-MS/MS analysis
[4] = target: T2, CYP21 (steroid 21-hydroxylase) (Homo sapiens, UniProt P08686); experiment: Inhibition of human CYP21 transfected in HEK293 cells assessed as decrease in conversion of progesterone to 11-deoxycorticosterone at 100 nM preincubated for 5 hrs followed by progesterone addition measured after 20 hrs by ELISA relative to control; type: cell-based; details: HEK293 cells transfected with human CYP21, probe progesterone
T2 sequence (P08686 whole entry): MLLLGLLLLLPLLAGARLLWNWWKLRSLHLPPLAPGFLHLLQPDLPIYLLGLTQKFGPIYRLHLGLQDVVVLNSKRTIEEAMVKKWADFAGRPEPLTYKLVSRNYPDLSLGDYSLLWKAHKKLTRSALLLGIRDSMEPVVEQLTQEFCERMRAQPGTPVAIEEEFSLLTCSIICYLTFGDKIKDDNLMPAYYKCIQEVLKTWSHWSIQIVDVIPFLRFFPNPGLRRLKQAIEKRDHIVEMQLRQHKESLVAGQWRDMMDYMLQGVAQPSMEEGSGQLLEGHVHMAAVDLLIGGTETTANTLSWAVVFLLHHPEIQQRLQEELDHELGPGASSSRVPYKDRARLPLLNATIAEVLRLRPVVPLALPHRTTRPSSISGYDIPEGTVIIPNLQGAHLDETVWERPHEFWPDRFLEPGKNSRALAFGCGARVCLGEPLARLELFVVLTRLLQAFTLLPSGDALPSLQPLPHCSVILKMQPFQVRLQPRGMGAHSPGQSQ

[5] = target: T2, CYP21 (steroid 21-hydroxylase); experiment: Inhibition of human CYP21 transfected in HEK293 cells assessed as decrease in conversion of progesterone to 11-deoxycorticosterone preincubated for 5 hrs followed by progesterone addition measured after 20 hrs by ELISA; type: cell-based; design: concentration or dose not given beside the values; details: HEK293 cells transfected with human CYP21, probe progesterone
[6] = Half life in rat liver microsomes at 1 uM by LC-MS/MS analysis
[7] = target: T3, CYP11B (Rattus norvegicus, UniProt P15393+P30099); experiment: Inhibition of Sprague-Dawley rat adrenal mitochondrial CYP11B assessed as decrease in conversion of 11-deoxycortisol to cortisol at 100 nM incubated for 60 mins by ELISA relative to control; type: protein assay; details: adrenal mitochondria, probe 11-deoxycortisol
T3 sequence (P30099 whole entry): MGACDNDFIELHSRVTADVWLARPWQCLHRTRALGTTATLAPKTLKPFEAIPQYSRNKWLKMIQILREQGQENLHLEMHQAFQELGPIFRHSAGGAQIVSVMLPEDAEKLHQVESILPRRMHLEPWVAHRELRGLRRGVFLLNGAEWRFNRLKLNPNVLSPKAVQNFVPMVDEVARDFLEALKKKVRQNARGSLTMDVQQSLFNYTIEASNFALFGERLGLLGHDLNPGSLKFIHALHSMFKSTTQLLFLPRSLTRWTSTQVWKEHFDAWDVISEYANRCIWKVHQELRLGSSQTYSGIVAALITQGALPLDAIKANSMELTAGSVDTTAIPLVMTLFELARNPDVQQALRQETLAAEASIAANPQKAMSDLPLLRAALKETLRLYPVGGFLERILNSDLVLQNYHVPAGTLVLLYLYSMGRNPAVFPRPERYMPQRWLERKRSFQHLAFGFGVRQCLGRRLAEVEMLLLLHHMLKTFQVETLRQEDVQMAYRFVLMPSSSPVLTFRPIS
T3 sequence (P15393 whole entry): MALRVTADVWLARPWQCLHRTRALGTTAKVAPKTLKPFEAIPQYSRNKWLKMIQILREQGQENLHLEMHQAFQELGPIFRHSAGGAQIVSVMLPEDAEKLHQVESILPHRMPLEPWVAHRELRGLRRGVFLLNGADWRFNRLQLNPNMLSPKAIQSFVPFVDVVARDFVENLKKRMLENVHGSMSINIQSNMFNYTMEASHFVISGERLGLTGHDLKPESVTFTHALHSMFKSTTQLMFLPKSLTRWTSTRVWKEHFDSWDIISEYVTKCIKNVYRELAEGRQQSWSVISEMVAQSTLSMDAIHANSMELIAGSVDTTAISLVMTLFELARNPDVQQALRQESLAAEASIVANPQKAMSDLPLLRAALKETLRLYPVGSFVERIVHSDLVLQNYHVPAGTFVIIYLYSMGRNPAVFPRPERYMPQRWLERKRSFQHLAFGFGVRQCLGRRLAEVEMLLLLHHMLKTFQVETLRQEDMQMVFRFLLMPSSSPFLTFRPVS

[8] = target: T1, Steroid 17-alpha-hydroxylase/17,20 lyase; experiment: Inhibition of CYP17 in human H295R cells assessed as decrease in testosterone levels after 24 hrs by ELISA; type: cell-based
[9] = target: T1, Steroid 17-alpha-hydroxylase/17,20 lyase; experiment: Inhibition of CYP17 in human testicular microsomes using 17alpha-hydroxypregnenolone as substrate assessed as decrease in DHEA levels at 1 nM after 90 mins by ELISA relative to control; design: species or system Testis

SMILES	IC50 [1] [nM]	inhibition at 0.01 µM [2] [%]	half-life at 1 µM [3] [min]	inhibition at 20 h, 0.1 µM [4] [%]	inhibition at 20 h [5] [%]	half-life at 1 µM [6] [min]	inhibition at 1 h, 0.1 µM [7] [%]	IC50 [8] [nM]	IC50 [9] [nM]
CN1CC[C@@]2(C)C(=CC1=O)CC[C@H]1C3=CC=C(c4cnccn4)[C@@]3(C)CC[C@@H]12	≤ 11	≥ 80	–	≥ 30	10 to 50	–	–	–	–
COc1cncc(C2=CC=C3[C@@H]4CCC5=CC(=O)CC[C@]5(C)[C@H]4CC[C@]23C)c1	–	50 to 80	1 to 50	≥ 30	–	–	–	–	–
C[C@]12CCCCC1C(=O)C[C@@H]1[C@@H]2CC[C@]2(C)C(n3ccnc3)=CC[C@@H]12 (stereo partly drawn)	≤ 11	≥ 80	–	–	–	–	< 32	–	–
C[C@]12CCNC(=O)C=C1CC[C@@H]1[C@@H]2CC[C@]2(C)C(n3ccnn3)=CC[C@@H]12	–	≥ 80	≥ 50	< 30	–	1 to 10	–	–	–
COc1cncc(C2=CC=C3[C@@H]4CCC5=CC(=O)NCC[C@]5(C)[C@H]4CC[C@]23C)c1	≤ 11	50 to 80	–	≥ 30	–	–	–	–	–
CCCOc1cncc(C2=CC[C@H]3[C@@H]4CCC5=CC(=O)NCC[C@]5(C)[C@H]4CC[C@]23C)c1	≤ 11	50 to 80	–	< 30	–	–	–	–	–
Cc1ccncc1C1=CC[C@H]2[C@@H]3CC[C@H]4CC(=O)NCC[C@]4(C)[C@H]3CC[C@]12C	–	–	–	–	10 to 50	–	< 32	≤ 15	–
CC(=O)N[C@@H]1CC[C@@]2(C)C(=CC[C@@H]3[C@@H]2CC[C@]2(C)C(n4ccnc4)=CC[C@@H]32)C1	≤ 11	–	≥ 50	–	≥ 50	–	≥ 50	≤ 15	–
COC(=O)N1CCC[C@@]2(C)[C@@H](CC[C@@H]3[C@@H]2CC[C@]2(C)C(n4ccnc4)=CC[C@@H]32)C1	–	–	–	–	10 to 50	–	≥ 50	–	> 100
C[C@]12CC[C@H]3[C@@H](CC[C@H]4CC(=O)NCC[C@@]43C)C1=CC=C2n1ccnc1	≤ 11	≥ 80	1 to 50	≥ 30	–	–	–	–	–
Cc1cncc(C2=CC=C3[C@@H]4CCC5=CC(=O)N(C)CC[C@]5(C)[C@H]4CC[C@]23C)c1	–	50 to 80	–	< 30	–	–	–	–	–
C[C@]12CCNC(=O)C=C1CC[C@@H]1[C@@H]2CC[C@]2(C)C(c3cnccn3)=CC[C@@H]12	–	≥ 80	1 to 10	≥ 30	–	1 to 10	–	–	–
COc1cncc(C2=CC=C3[C@@H]4CCC5=CC(=O)N(C)CC[C@]5(C)[C@H]4CC[C@]23C)c1	≤ 11	≥ 80	1 to 50	≥ 30	–	–	–	–	–
COc1cncc(C2CC[C@H]3[C@@H]4CCC5=CC(=O)NCC[C@]5(C)[C@H]4CC[C@]23C)c1 (stereo partly drawn)	≤ 11	≥ 80	10 to 60	–	–	10 to 60	< 32	–	–
C[C@]12CC[C@H]3[C@@H](CCC4=C/C(=N/O)CC[C@@]43C)C1=CC=C2c1cccnc1	≤ 11	–	1 to 50	< 30	≥ 50	–	–	–	–
CC1C[C@H]2C3=CC=C(c4cncc(N)c4)[C@@]3(C)CC[C@@H]2[C@@]2(C)CCC(=O)C=C12 (stereo partly drawn)	≤ 11	–	–	< 30	–	–	–	–	–

The next lines start with the values.

IC50 [1] [nM]	inhibition at 0.01 µM [2] [%]	half-life at 1 µM [3] [min]	inhibition at 20 h, 0.1 µM [4] [%]	inhibition at 20 h [5] [%]	half-life at 1 µM [6] [min]	inhibition at 1 h, 0.1 µM [7] [%]	IC50 [8] [nM]	IC50 [9] [nM]	SMILES
≤ 11	≥ 80	1 to 50	≥ 30	–	–	–	–	–	C[C@]12CCCC(=O)CC1=CC[C@@H]1[C@@H]2CC[C@]2(C)C(n3ccnc3)=CC[C@@H]12
≤ 11	50 to 80	1 to 10	–	–	1 to 10	< 32	–	–	COc1cncc(C2=CC[C@H]3[C@@H]4CCC5=CC(=O)N(C)CC[C@]5(C)[C@H]4CC[C@]23C)c1
–	≥ 80	1 to 50	≥ 30	–	–	–	–	–	C[C@]12CCCC(=O)CC1=CC[C@@H]1[C@@H]2CC[C@]2(C)C(c3cnccn3)=CC[C@@H]12
–	≥ 80	1 to 50	–	–	–	≥ 50	–	–	COc1cncc(C2=CC[C@H]3[C@@H]4CC=C5N(C)C(=O)CCC[C@]5(C)[C@H]4CC[C@]23C)c1
–	50 to 80	–	≥ 30	–	–	–	–	–	CCc1cncc(C2=CC[C@H]3[C@@H]4CCC5=CC(=O)N(C)CC[C@]5(C)[C@H]4CC[C@]23C)c1
≤ 11	≥ 80	1 to 50	–	–	10 to 60	≥ 50	–	–	CN1CC[C@@]2(C)C(=CC1=O)CC[C@@H]1[C@@H]2CC[C@]2(C)C(n3ccnc3)=CC[C@@H]12
≤ 11	≥ 80	1 to 50	–	–	–	≥ 50	–	–	CN1C(=O)CCC[C@@]2(C)C1=CC[C@@H]1[C@@H]2CC[C@]2(C)C(c3cccnc3)=CC[C@@H]12
≤ 11	50 to 80	–	< 30	–	–	–	–	–	C[C@]12CC[C@H]3[C@@H](CCN4C(=O)CCCC[C@]34C)[C@@H]1CC=C2c1cccnc1
–	50 to 80	1 to 10	≥ 30	–	1 to 10	–	–	–	C[C@]12CCNC(=O)C=C1CC[C@@H]1[C@@H]2CC[C@]2(C)C(c3cncnc3)=CC[C@@H]12
–	–	–	–	10 to 50	–	≥ 50	≤ 15	–	Cc1ccncc1C1=CCC2[C@@H]3CN(C)C4=CC(=O)CC[C@]4(C)[C@H]3CC[C@]12C (single isomer, unassigned)
≤ 11	≥ 80	1 to 50	–	≥ 50	–	< 32	≤ 15	–	C[C@]12CC[C@H](O)CC1=CC[C@@H]1[C@@H]2CC[C@]2(C)C(c3cccnc3)=CC[C@@H]12 [ABIRATERONE]
